Marks after values point to notes of the source that are not given here.
How the values were obtained:
[1] = Diuretic effect of Dexamethasone in intact Wistar rats; assay type: in vivo; conditions: 24-hour treatment, Dex 1 mg/kg (RU486 100 mg/kg in combination), mean ± SD
Source text: (§1) To determine the effect of glucocorticoids on diuretic effect and NPR-A expression in renal medulla, 15 intact Wistar rats were randomized to receive Dexamethasone (Dex), vehicle and glucocorticoid receptor (GR) antagonist RU 486.

NPR-A [2] = assay: NPR-A expression in renal medulla of intact rats (western blotting); assay type: in vivo; conditions: intact Wistar rats, 24-hour treatment, Dex 1 mg/kg (RU486 100 mg/kg in combination), mean ± SD
Source text: as §1

NPR-A [3] = assay: NPR-A expression in IMCD cells (immunofluorescence); assay type: cell-based, Wistar rats; parameters: key to NPR-A expression (24 hours) / NPR-A expression (48 hours): + = low; ++ = moderate; +++ = high; conditions: for NPR-A expression (24 hours) / NPR-A expression (48 hours): rat IMCD cells
Source text: IMCD cells from Wistar rats were isolated and cultured using the method previously described by Ye Q et al.: Endothelin inhibits NPR-A and stimulates eNOS gene expression in rat IMCD cells. Hypertension 41, 675-681 (2003). […] […] The Density of membrane NPR-A in IMCD cells were visualized by immunofluorescence.

[4] = Diuretic effect in rats with decompensated heart failure; assay type: in vivo, Wistar rats; conditions: 1 mg/kg, 12 hours, mean ± SD
Description: (§2) To determine the effects of corticosteroids on systemic volume in HF, 15 Wistar rats with HF were randomized to receive NCX-1015 (n=5), or prednisolone (n=5), or vehicle (n=5). HF model was accomplished by left anterior descending artery ligation, and then the survived rats were raised for 12 weeks to have decompensated HF (i.e. HF with fluid accumulation). Parameters on urinary volume and urinary sodium in 12 hours were collected.

NPR-A [5] = assay: NPR-A expression in renal medulla of heart failure rats (western blotting); assay type: in vivo, Wistar rats
Description: as §2

AT1 receptor = AT1 receptor density in the kidney of rats with decompensated heart failure (western blotting); assay type: in vivo, Wistar rats; conditions: 1 mg/kg, 24-hour treatment, mean ± SD
Source text: (§3) To determine the effects of corticosteroids on RAAS in HF, 15 Wistar rats with HF were randomized to receive NCX-1015 (n=5), or prednisolone (n=5), or vehicle (n=5).

angiotensin II = assay: Plasma angiotensin II in rats with decompensated heart failure; assay type: in vivo, Wistar rats; conditions: 1 mg/kg, 24-hour treatment, mean ± SD
Source text: as §3

aldosterone = assay: Plasma aldosterone in rats with decompensated heart failure; assay type: in vivo, Wistar rats; conditions: 1 mg/kg, 24-hour treatment, mean ± SD
Source text: as §3

V2 receptor = V2 receptor density in the kidney of rats with decompensated heart failure (western blotting); assay type: in vivo, Wistar rats; conditions: 1 mg/kg, 24-hour treatment, mean ± SD
Source text: (§4) To determine the effects of corticosteroids on vasopressin axis in HF, 15 Wistar rats with HF were randomized to receive NCX-1015 (n=5), or prednisolone (n=5), or vehicle (n=5).

vasopressin = assay: Plasma vasopressin in rats with decompensated heart failure; assay type: in vivo, Wistar rats; conditions: 1 mg/kg, 24-hour treatment, mean ± SD
Source text: as §4

[6] = 10^−7 mol/L, membrane NPR-A density
[7] = 10^−7 mol/L, membrane NPR-A density (Table 3)
[8] = 10^−6 mol/L, membrane NPR-A density (Table 3)
[9] = 10^−6 mol/L, membrane NPR-A density

SMILES | Urinary sodium [4] | Urinary volume [4] | NPR-A expression in the renal medulla, higher than vehicle-treated rats (NPR-A [5]) | AT1 receptor density in the kidney (AT1 receptor) | Plasma angiotensin II (angiotensin II) | Plasma aldosterone (aldosterone) | V2 receptor density in the kidney (V2 receptor) | Plasma vasopressin (vasopressin) | also measured
C[C@@H]1C[C@H]2[C@@H]3CCC4=CC(=O)C=C[C@]4(C)[C@@]3(F)[C@@H](O)C[C@]2(C)[C@@]1(O)C(=O)CO [Dex, Dexamethasone] | – | – | – | – | – | – | – | – | Urinary sodium [1]: 3.50 ± 0.39 mmol/24 h; Urinary volume [1]: 16.4 ± 2.4 ml/24 h; NPR-A expression (NPR-A [2]): 132.2 ± 9.7* 100% of vehicle
C[C@]12C=CC(=O)C=C1CC[C@@H]1[C@@H]2[C@@H](O)C[C@@]2(C)[C@H]1CC[C@]2(O)C(=O)COC(=O)c1ccc(CO[N+](=O)[O-])cc1 [NCX-1015, prednisolone 21-[(4′-nitro-oxymethyl)benzoate]] | 1.43 ± 0.15 mmol/12 h | 8.8 ± 1.5 ml/12 h | 42.8% | 43.14 ± 7.07 % of vehicle | 412.20 ± 64.99*^& pg/ml | 0.99 ± 0.09 ng/mL | 54.06 ± 16.15 % of vehicle | 32.14 ± 5.47 pg/mL | Dose needed to attain the same effect of prednisolone on renal NPR-A (NPR-A [3]; in vitro, fraction of the prednisolone dose): about 1/10; Time needed to attain the same effect of prednisolone on renal NPR-A (NPR-A [3]; in vitro, fraction of the prednisolone time): about half; NPR-A expression (24 hours) (NPR-A [3]; [6]): ++; NPR-A expression (48 hours) (NPR-A [3]; [6]): +++
C[C@]12CCC(=O)C=C1CC[C@@H]1[C@@H]2[C@@H](O)C[C@@]2(C)[C@H]1CC[C@]2(O)C(=O)COC(=O)c1ccc(CO[N+](=O)[O-])cc1 [NCX-1022] | – | – | – | – | – | – | – | – | NPR-A expression (24 hours) (NPR-A [3]; [7]): ++; NPR-A expression (48 hours) (NPR-A [3]; [7]): +++
C[C@]12CCC(=O)C=C1CC[C@@H]1[C@@H]2[C@@H](O)C[C@@]2(C)[C@H]1CC[C@]2(O)C(=O)CO [hydrocortisone] | – | – | – | – | – | – | – | – | NPR-A expression (24 hours) (NPR-A [3]; [8]): +; NPR-A expression (48 hours) (NPR-A [3]; [8]): ++
C[C@]12C=CC(=O)C=C1CC[C@@H]1[C@@H]2[C@@H](O)C[C@@]2(C)[C@H]1CC[C@]2(O)C(=O)CO [prednisolone] | 1.08 ± 0.1 mmol/12 h | 6.1 ± 0.7 ml/12 h | 26.5% | 67.06 ± 12.96 % of vehicle | 665.86 ± 113.90^$ pg/ml | 1.39 ± 0.26 ng/mL | 79.80 ± 9.44^$ % of vehicle | 45.72 ± 8.35^$ pg/ml | NPR-A expression (24 hours) (NPR-A [3]; [9]): +; NPR-A expression (48 hours) (NPR-A [3]; [9]): ++
